Columns and labels:
Format in all cases: cell-based
NCI-H1993 (c-MET amp) = assay: In vitro growth inhibition (GI50), NCI-H1993; conditions: Homo sapiens, H1993, cMET Amp+
Description: (§1) Tumor cell line is an effective cell model for studying the inhibition of tumor cell growth or proliferation in vitro. In the present invention, a representative tumor cell line was selected to determine the cell growth inhibition activity of the present compound. All cell lines used were from ATCC, DSMZ, and the Cell Bank of the Chinese Academy of Sciences. Cell culture conditions and methods were in accordance with the requirements of each cell line. Cells were subcultured in vitro for no more than 3 passages each time, and as required, single-clone purification and identification of cell lines could be carried out.
(§2) The cell culture media used were RPMI1640 (Gibco), MEM (Gibco), McCOY'S5A (Gibco), and IMDM (Gibco). The complete medium was prepared by supplement with 5˜20% fetal calf serum (Gibco), 1% double-antibiotics (10000 units/mL penicillin and 10000 units/mL), 2 mM glutamine or 1 mM sodium pyruvate, respectively.
The human gastric cancer cell line MKN-45 (c-MET amp, ATCC) and the non-small cell lung cancer cell line NCI-H1993 (c-MET amp, ATCC) were cultured in complete medium comprising 1×RPMI1640 and 10% FBS, respectively.
(§3) Adherent cells were digested with 0.25% pancreatin-EDTA (Gibco). The suspension cells were collected by centrifugation. The supernatant was discarded and the cell pellet was resuspended and counted. Different cell concentrations (5˜10×10^4 cells/mL) were prepared according to the growth cycle of each cell line and then seeded on a 96-well plate (Corning), 100 μL/well. The cells were incubated overnight at 37° C., 5% CO2. The compounds were added to the cells on the second day with 2 wells in parallel. The final concentration of organic solvent shall not exceed 1%. The cells were continually incubated for 3 to 5 days, and then subjected to MTT assay.
(§4) The compound of the present invention and the control compound were dissolved in DMSO (Sigma) respectively, with the purity of more than 98%. The compound was stored in a concentration of 10 mM at −20° C. and diluted to 2- or 10-fold series prior to use.
(§5) Dojindo CCK8 reagent kit was used as MTT assay. THERMO […] FC meter was used as microplate reader.
(§6) For adherent cells, culture medium was removed and immediately replaced with the fresh prepared medium which contains 10% CCK8 reagent (100 μL/well). For the suspension cells, CCK8 was directly added to 10% of the final concentration. The cells were continually incubated for 1˜4 h. When a dark yellow color could be observed in the solvent control wells, the absorbance value at OD450 nm was measured and the cell growth rate was calculated according to the following formula: Cell Growth Rate (%)=100*(T−T0)/(C−T0) T=optical density of drug treatment cell well—optical density of blank control well; T0=optical density of cell well before drug treatment—optical density of blank control well; C=optical density of cell well of solvent control group—optical density of blank control well. The concentration value of 50% inhibition of cell growth (GI50) was calculated according to the drug concentration and cell growth rate curve. The experiment was independently repeated 1˜3 times, and subject to biological statistical analysis. 4. Experimental Results
(§7) Tumor cell growth inhibition test was performed by selecting representative compounds (compounds 4, 11, 12, 16, 27, 68, 71, 77, 79, 89 and 116 of the present invention). The initial concentration of the compound was 5,000 nM, then it was serially diluted by 2-fold or 10-fold to 0.01 nM. The GI50 value of each test compound was calculated according to the GI50 assay and calculation method. The experiments were repeated 1 to 3 times, and data were subjected to biological statistical analysis.

HL-60 (FLT3 wild type) = assay: In vitro growth inhibition (GI50), HL-60; conditions: Homo sapiens, Cell lines of leukemia, read-out: GI 50 HL60 FLT3 (WT)
Outline: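 After 3–5 days of treatment (top concentration 5,000 nM, serially diluted 2- or 10-fold to 0.01 nM, solvent ≤1%), viability was read by CCK8 at OD450. Growth rate was normalised to the time-zero and solvent-control wells, and GI50 was derived from the curve. Cultures in RPMI1640 + 10% FBS.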

[1] = test system: NCI-H1975 (EGFR L858R/T790M); assay: In vitro growth inhibition (GI50), NCI-H1975; conditions: Homo sapiens
Description: as §1, §2
Human epidermal cancer cell line A431 (EGFR WT, amplification and high expression, from Shanghai Cell Bank of Chinese Academy of Sciences and ATCC), human lung cancer cell line NCI-H292 (EGFR WT, purchased from Shanghai Cell Bank of Chinese Academy of Sciences), NSCLC cell lines PC-9 and HCC827 (EGFR exon19 E746-A750 deletion, two cell lines are sensitive to the first-generation EGFR PTK inhibitor), NSCLC cell line NCI-H1975 (EGFR L858R/T790M and the first-generation EGFR inhibitor resistance, ATCC) were cultured with 1×RPMI1640 complete medium (supplement with 10% FBS), respectively.
as §3, §4, §5, §6
as §7, with “The experiments were repeated 1 to 3 times, and data were subjected to biological statistical analysis.” left out

Row | Compound | GI50 (NCI-H1993 (c-MET amp)) | GI50 (HL-60 (FLT3 wild type)) | GI50 [1]
1 | CC(C)(C)c1cc(NC(=O)Nc2ccc(-n3cnc4cc(OCCN5CCOCC5)ccc43)cc2)no1 [Compound 16, 1-(5-tert-butyl-isoxazol-3-yl)-3-{4-[5-(2-morpholin-4-yl-ethoxyl)-benzimidazol-1-yl]-phenyl}-urea] | > 2500 nM | > 1000 nM | > 2500 nM
2 | CC(C)(C)c1cc(N)n(C(=O)Nc2ccc(-n3cnc4ccccc43)cc2)n1 [Compound 116, 5-amino-3-tert-butyl-pyrazol-1-carboxylic acid (4-benzimidazol-1-yl-phenyl)-amide] | > 2500 nM | > 1000 nM | > 2500 nM
3 | CC(C)(C)c1cc(NC(=O)Nc2ccc(-n3cnc4cc(OCCO)ccc43)cc2)[nH]n1 [Compound 79, 1-(5-tert-butyl-2H-pyrazol-3-yl)-3-{4-[5-(2-hydroxy-ethoxyl)-benzimidazol-1-yl]-phenyl]urea] | > 2500 nM | > 1000 nM | > 2500 nM
4 | CC(C)(C)c1cc(NC(=O)Nc2ccc(-n3cnc4cc(OCCN5CCOCC5)ccc43)cc2)[nH]n1 [Compound 89, 1-(5-tert-butyl-2H-pyrazol-3-yl)-3-{4-[5-(2-morpholin-4-yl-ethoxyl)-benzimidazol-1-yl]-phenyl}-urea] | > 2500 nM | > 1000 nM | > 2500 nM
5 | COCCOc1ccc2c(c1)ncn2-c1ccc(NC(=O)Nc2cc(C(C)(C)C)n[nH]2)cc1 [Compound 77, 1-(5-tert-butyl-2H-pyrazol-3-yl)-3-{4-[5-(2-methoxyl-ethoxyl)-benzimidazol-1-yl]-phenyl}-urea] | > 2500 nM | > 1000 nM | > 2500 nM
6 | COc1ccc2c(c1)ncn2-c1ccc(NC(=O)Nc2cc(C(C)(C)C)n[nH]2)cc1 [Compound 71, 1-(5-tert-butyl-2H-pyrazol-3-yl)-3-[4-(5-methoxyl-benzimidazol-1-yl)-phenyl]-urea] | > 2500 nM | > 1000 nM | > 2500 nM
7 | CC(C)(C)c1cc(NC(=O)Nc2ccc(-n3cnc4ccccc43)cc2)[nH]n1 [Compound 68, 1-(4-benzimidazol-1-yl-phenyl)-3-(5-tert-butyl-2H-pyrazol-3-yl)-urea] | > 2500 nM | > 1000 nM | > 2500 nM
8 | CC(C)(C)c1cc(NC(=O)Nc2ccc(-n3cnc4ccc(OCCN5CCOCC5)cc43)cc2)no1 [Compound 27, 1-(5-tert-butyl-isoxazol-3-yl)-3-{4-[6-(2morpholin-4-yl-ethoxyl)-benzimidazol-1-yl]-phenyl}-urea] | > 2500 nM | 100 to 1000 nM | > 2500 nM
9 | CC(C)(C)c1cc(NC(=O)Nc2ccc(-n3cnc4cc(O)ccc43)cc2)no1 [Compound 4, 1-(5-tert-butyl-isoxazol-3-yl)-3-[4-(5-hydroxy-benzimidazol-1-yl)-phenyl]-urea] | > 2500 nM | 100 to 1000 nM | > 2500 nM
10 | CC(C)(C)c1cc(NC(=O)Nc2ccc(-n3cnc4cc(OCCO)ccc43)cc2)no1 [Compound 11, 1-(5-tert-butyl-isoxazol-3-yl)-3-{4-[5-(2-hydroxy-ethoxyl)-benzimidazol-1-yl]-phenyl]-urea] | > 2500 nM | > 1000 nM | > 2500 nM

Source: US10647680B2, “Urea compound, preparation method therefor and medical use thereof” (Ancureall Pharmaceutical (Shanghai) Co., Ltd., priority 2016, dated 2020)
